Holding throughout (assay): relative viability (nuclei count vs DMSO), 5 days (fraction); higher = more cells survive
Compound in assay [1]: Cc1ccc(C(=O)N(CCCN)[C@@H](c2nc3cc(Cl)ccc3c(=O)n2Cc2ccccc2)C(C)C)cc1 [Ispinesib] + COc1cc2c(Oc3ccc(NC(=O)C4(C(=O)Nc5ccc(F)cc5)CC4)cc3F)ccnc2cc1OCCCN1CCOCC1 [Foretinib] (partner 0.25 µM)
The procedure, abridged: (§1)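 After 5 days of treatment, lung cancer cells in 1536-well plates were fixed and stained in a single step (final 0.05% Triton X-100, 1% formaldehyde, 1 ug/ml Hoechst) and their nuclei counted on 4× images. Treatment had been applied by pin tool the day after seeding as one drug alone or as a fixed anchor-drug dose with five library-drug doses (not always all listed) in √10 steps. Relative viability is the nuclei count of treated wells divided by that of vehicle wells, and values are medians of duplicate plates.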

Compound in assay [2]: Cc1ccc(C(=O)N(CCCN)[C@@H](c2nc3cc(Cl)ccc3c(=O)n2Cc2ccccc2)C(C)C)cc1 [Ispinesib] + COc1cccc2cc(-c3nc([C@H]4CC[C@H](C(=O)O)CC4)n4ncnc(N)c34)[nH]c12 [OSI-027] (partner 0.5 µM)
The procedure, abridged:
as §1

Compound in assay [3]: C[C@]1(O)C[C@@H](c2nc(-c3ccc4ccc(-c5ccccc5)nc4c3)c3c(N)nccn32)C1 [Linsitinib] + Cc1cc(Nc2cc(N3CCN(C)CC3)nc(Sc3ccc(NC(=O)C4CC4)cc3)n2)n[nH]1 [Tozasertib] (partner 0.1 µM)
The procedure, abridged:
as §1

Compound in assay [4]: Cc1ccc(C(=O)N(CCCN)[C@@H](c2nc3cc(Cl)ccc3c(=O)n2Cc2ccccc2)C(C)C)cc1 [Ispinesib] + NC(=O)Nc1cc(-c2cccc(F)c2)sc1C(=O)N[C@H]1CCCNC1 [AZD7762] (partner 0.2 µM)
The procedure, abridged: as §1

On to NCI-H441, for which the relative viability was 0.926 in assay [1] (first compound 0.001 µM); 1 in assay [1] (first compound 0.003162 µM); 1.19 in assay [1] (first compound 0.01 µM); 0.419 in assay [1] (first compound 0.03162 µM); 0.291 in assay [1] (first compound 0.1 µM); 0.582 in assay [2] (first compound 0.001 µM). Moreover, the relative viability in assay [2] (first compound 0.003162 µM) came out at 0.738; in assay [2] (first compound 0.01 µM), 0.517; in assay [2] (first compound 0.03162 µM) it was 0.175; in assay [2] (first compound 0.1 µM), 0.285; in assay [3] (first compound 0.01 µM) it was 0.612; in assay [3] (first compound 0.03162 µM), 1.08. The relative viability in assay [3] (first compound 0.1 µM) was 0.671; in assay [3] (first compound 0.3162 µM), 0.509; in assay [3] (first compound 1 µM), 0.404; in assay [4] (first compound 0.001 µM), 1.41; in assay [4] (first compound 0.003162 µM) it was 1.22; in assay [4] (first compound 0.01 µM) it was 1.44. Moreover, the relative viability in assay [4] (first compound 0.03162 µM) is 0.64; in assay [4] (first compound 0.1 µM), 0.309.

With NCI-H520, the relative viability in assay [1] (first compound 0.001 µM) turned out to be 0.906; in assay [1] (first compound 0.003162 µM), 0.832; in assay [1] (first compound 0.01 µM), 0.866; in assay [1] (first compound 0.03162 µM) it was 0.379; in assay [1] (first compound 0.1 µM) it was 0.306; in assay [2] (first compound 0.001 µM) it was 0.249. Also, the relative viability was found to be 0.218 in assay [2] (first compound 0.003162 µM); 0.276 in assay [2] (first compound 0.01 µM); 0.19 in assay [2] (first compound 0.03162 µM); 0.169 in assay [2] (first compound 0.1 µM); 0.426 in assay [3] (first compound 0.01 µM); 0.39 in assay [3] (first compound 0.03162 µM). For the same cell line, the relative viability was determined as 0.494 in assay [3] (first compound 0.1 µM) and 0.408 in assay [3] (first compound 1 µM).

In the case of CAL-12T, the relative viability in assay [1] (first compound 0.001 µM) worked out at 1.2; in assay [1] (first compound 0.003162 µM), 1.06; in assay [1] (first compound 0.01 µM), 1.31; in assay [1] (first compound 0.03162 µM), 0.938; in assay [1] (first compound 0.1 µM) it was 0.197; in assay [2] (first compound 0.001 µM), 0.737. In addition, the relative viability stood at 0.584 in assay [2] (first compound 0.003162 µM); 0.701 in assay [2] (first compound 0.01 µM); 0.166 in assay [2] (first compound 0.03162 µM); 0.177 in assay [2] (first compound 0.1 µM); 0.267 in assay [3] (first compound 0.01 µM); 0.287 in assay [3] (first compound 0.03162 µM). In addition, the relative viability in assay [3] (first compound 0.1 µM) came to 0.296; in assay [3] (first compound 0.3162 µM), 0.255; in assay [3] (first compound 1 µM) it was 0.225; in assay [4] (first compound 0.001 µM), 0.707; in assay [4] (first compound 0.003162 µM), 0.74; in assay [4] (first compound 0.01 µM) it was 0.594. For the same cell line, the relative viability in assay [4] (first compound 0.03162 µM) is 0.52; in assay [4] (first compound 0.1 µM), 0.212.

With HCC-827, the relative viability in assay [1] (first compound 0.001 µM) is 1.04; in assay [1] (first compound 0.003162 µM), 1.02; in assay [1] (first compound 0.01 µM), 1.05; in assay [1] (first compound 0.03162 µM) it was 0.936; in assay [1] (first compound 0.1 µM), 0.684; in assay [2] (first compound 0.001 µM), 0.653. Further, the relative viability in assay [2] (first compound 0.003162 µM) came out at 0.801; in assay [2] (first compound 0.01 µM), 0.887; in assay [2] (first compound 0.03162 µM), 0.664; in assay [2] (first compound 0.1 µM) it was 0.437; in assay [3] (first compound 0.01 µM) it was 0.43; in assay [3] (first compound 0.03162 µM) it was 0.426. For the same cell line, the relative viability in assay [3] (first compound 0.1 µM) is 0.433; in assay [3] (first compound 1 µM) it was 0.393; in assay [4] (first compound 0.001 µM) it was 0.229; in assay [4] (first compound 0.003162 µM), 0.21; in assay [4] (first compound 0.01 µM) it was 0.146; in assay [4] (first compound 0.03162 µM), 0.198. In addition, the relative viability in assay [4] (first compound 0.1 µM) was 0.197.

As to LC-2-ad, the relative viability in assay [1] (first compound 0.001 µM) was 0.892; in assay [1] (first compound 0.003162 µM), 0.863; in assay [1] (first compound 0.01 µM), 1.09; in assay [1] (first compound 0.03162 µM) it was 0.63; in assay [1] (first compound 0.1 µM), 0.361; in assay [2] (first compound 0.001 µM), 0.808. In addition, the relative viability worked out at 0.855 in assay [2] (first compound 0.003162 µM); 0.973 in assay [2] (first compound 0.01 µM); 0.352 in assay [2] (first compound 0.03162 µM); 0.264 in assay [2] (first compound 0.1 µM); 0.48 in assay [3] (first compound 0.01 µM); 0.523 in assay [3] (first compound 0.03162 µM). Also, the relative viability was 0.387 in assay [3] (first compound 0.1 µM); 0.285 in assay [3] (first compound 0.3162 µM); 0.41 in assay [3] (first compound 1 µM); 0.942 in assay [4] (first compound 0.001 µM); 0.941 in assay [4] (first compound 0.003162 µM); 1.02 in assay [4] (first compound 0.01 µM). Further, the relative viability came out at 0.425 in assay [4] (first compound 0.03162 µM) and 0.322 in assay [4] (first compound 0.1 µM).

Turning to NCI-H2170, the relative viability in assay [1] (first compound 0.001 µM) is 0.997; in assay [1] (first compound 0.003162 µM), 1.03; in assay [1] (first compound 0.01 µM), 0.96; in assay [1] (first compound 0.03162 µM), 0.806; in assay [1] (first compound 0.1 µM), 0.359; in assay [2] (first compound 0.001 µM), 0.743. For the same cell line, the relative viability in assay [2] (first compound 0.003162 µM) was determined as 0.644; in assay [2] (first compound 0.01 µM), 0.75; in assay [2] (first compound 0.03162 µM), 0.354; in assay [2] (first compound 0.1 µM), 0.191; in assay [3] (first compound 0.01 µM) it was 0.732; in assay [3] (first compound 0.03162 µM), 0.76. For the same cell line, the relative viability came to 0.681 in assay [3] (first compound 0.1 µM); 0.513 in assay [3] (first compound 0.3162 µM); 0.678 in assay [3] (first compound 1 µM); 0.897 in assay [4] (first compound 0.001 µM); 0.88 in assay [4] (first compound 0.003162 µM); 0.909 in assay [4] (first compound 0.01 µM). In addition, the relative viability came out at 0.225 in assay [4] (first compound 0.03162 µM) and 0.17 in assay [4] (first compound 0.1 µM).

For SW 1573, the relative viability in assay [1] (first compound 0.001 µM) came to 0.978; in assay [1] (first compound 0.003162 µM), 0.893; in assay [1] (first compound 0.01 µM), 0.907; in assay [1] (first compound 0.03162 µM) it was 1.1; in assay [1] (first compound 0.1 µM), 0.32; in assay [2] (first compound 0.001 µM) it was 0.622. For the same cell line, the relative viability in assay [2] (first compound 0.003162 µM) turned out to be 0.645; in assay [2] (first compound 0.01 µM), 0.526; in assay [2] (first compound 0.03162 µM), 0.162; in assay [2] (first compound 0.1 µM) it was 0.186; in assay [3] (first compound 0.01 µM) it was 0.213; in assay [3] (first compound 0.03162 µM) it was 0.171. Further, the relative viability was determined as 0.189 in assay [3] (first compound 0.1 µM), 0.186 in assay [3] (first compound 0.3162 µM) and 0.136 in assay [3] (first compound 1 µM).

Values taken from the supplement of paper PMC10307832.
